Columns and labels:
Conditions in all cases: 72 h
BT-474 [1] = tested on: BT-474
Procedure, shortened: (§1)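 The plates used were 384-well plates holding compound at 5 concentrations in 10-fold steps across a compound-specific 10,000-fold range, into which breast cancer cell lines were seeded in 20 µl suspension. Following 72 h incubation, CellTox Green fluorescence was read at 485/520 nm, and CellTiter-Glo luminescence was read after 10 min at room temperature. Normalisation on each plate used 0.1 % DMSO and a positive kill control. Dose-response curves gave the EC50, which was censored at the top concentration.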

HCC1937 [2] = tested on: HCC1937
Procedure, shortened: as §1

Hs578T [3] = tested on: Hs578T
Procedure, shortened: as §1

MFM-223 [4] = tested on: MFM-223
Procedure, shortened: as §1

CAL-85-1 [5] = tested on: CAL-85-1
Procedure, shortened: as §1

MDA-MB-231 [6] = tested on: MDA-MB-231
Procedure, shortened: as §1

DU-4475 [7] = tested on: DU-4475
Procedure, shortened: as §1

CAL-120 [8] = tested on: CAL-120
Procedure, shortened: as §1

MDA-MB-436 [9] = tested on: MDA-MB-436
Procedure, shortened: as §1

MCF-10A [10] = tested on: MCF-10A
Procedure, shortened: as §1

HDQ-P1 [11] = tested on: HDQ-P1
Procedure, shortened: as §1

CAL-85-1 [12] = tested on: CAL-85-1; remark: listed apart in the source
Experimental: (§2)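 Drug sensitivity and resistance testing (DSRT) of breast cancer cell lines in 384-well plates, 5 concentrations in 10-fold dilutions over a compound-specific 10,000-fold range. After 72 h, cytotoxicity was read by CellTox Green fluorescence and viability by CellTiter-Glo luminescence (multiplexed), normalised to DMSO and benzethonium chloride controls. EC50 is the inflection point of the fitted dose-response curve (bottom asymptote free, so it can be relative for partial curves) and is censored at the highest tested concentration. Rows with DSS 0 (no meaningful response) were excluded.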

MDA-MB-231 [13] = tested on: MDA-MB-231; remark: listed apart in the source
Experimental: as §2

DU-4475 [14] = tested on: DU-4475; remark: listed apart in the source
Experimental: as §2

CAL-120 [15] = tested on: CAL-120; remark: listed apart in the source
Experimental: as §2

MCF-10A [16] = tested on: MCF-10A; remark: listed apart in the source
Experimental: as §2

CAL-51 [17] = tested on: CAL-51
Procedure, shortened: as §1

HCC1599 [18] = tested on: HCC1599
Procedure, shortened: as §1

BT-549 [19] = tested on: BT-549
Procedure, shortened: as §1

MDA-MB-453 [20] = tested on: MDA-MB-453
Procedure, shortened: as §1

CAL-148 [21] = tested on: CAL-148
Procedure, shortened: as §1

MDA-MB-468 [22] = tested on: MDA-MB-468
Procedure, shortened: as §1

HCC1143 = tested on: HCC1143
Procedure, shortened: as §1

SK-BR-3 = tested on: SK-BR-3
Procedure, shortened: as §1

CAL-51 [23] = tested on: CAL-51; remark: listed apart in the source
Experimental: as §2

HCC1599 [24] = tested on: HCC1599; remark: listed apart in the source
Experimental: as §2

BT-549 [25] = tested on: BT-549; remark: listed apart in the source
Experimental: as §2

MDA-MB-453 [26] = tested on: MDA-MB-453; remark: listed apart in the source
Experimental: as §2

BT-474 [27] = tested on: BT-474; remark: listed apart in the source
Experimental: as §2

HCC1937 [28] = tested on: HCC1937; remark: listed apart in the source
Experimental: as §2

MFM-223 [29] = tested on: MFM-223; remark: listed apart in the source
Experimental: as §2

CAL-148 [30] = tested on: CAL-148; remark: listed apart in the source
Experimental: as §2

MDA-MB-436 [31] = tested on: MDA-MB-436; remark: listed apart in the source
Experimental: as §2

MDA-MB-468 [32] = tested on: MDA-MB-468; remark: listed apart in the source
Experimental: as §2

HDQ-P1 [33] = tested on: HDQ-P1; remark: listed apart in the source
Experimental: as §2

CAL-85-1 [34] = tested on: CAL-85-1; remark: listed apart in the source
Procedure, shortened: (§3)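 Breast cancer cell lines in 20 µl suspension were seeded onto 384-well plates that already held compound dissolved in 5 µl medium and were incubated for 72 h. Viability was measured by adding 2.5 µl CellTiter-Blue for 2 h at 37 °C and reading fluorescence at 560/590 nm. Each plate was normalised to vehicle and a positive kill control and checked by Z'-factor. EC50 was taken from a fitted percent-inhibition dose-response curve, censored at the highest concentration, and rows with a drug sensitivity score of zero were removed.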

DU-4475 [35] = tested on: DU-4475; remark: listed apart in the source
Procedure, shortened: as §3

HDQ-P1 [36] = tested on: HDQ-P1; remark: listed apart in the source
Procedure, shortened: as §3

HCC1937 [37] = tested on: HCC1937; remark: listed apart in the source
Procedure, shortened: as §3

Hs578T [38] = tested on: Hs578T; remark: listed apart in the source
Procedure, shortened: as §3

EC50, CellTiter-Glo (BT-474 [1]) [nM] | EC50, CellTiter-Glo (HCC1937 [2]) [nM] | EC50, CellTiter-Glo (MDA-MB-231 [6]) [nM] | EC50, CellTiter-Glo (MDA-MB-436 [9]) [nM] | EC50, CellTiter-Glo (HCC1599 [18]) [nM] | EC50, CellTiter-Glo (BT-549 [19]) [nM] | EC50, CellTiter-Glo (MDA-MB-453 [20]) [nM] | EC50, CellTiter-Glo (MDA-MB-468 [22]) [nM] | EC50, CellTiter-Glo (HCC1143) [nM] | EC50, CellTiter-Glo (SK-BR-3) [nM] | EC50, CellTiter-Blue viability (HCC1937 [37]) [nM] | SMILES | EC50, CellTiter-Glo (Hs578T [3]) [nM] | EC50, CellTiter-Glo (MFM-223 [4]) [nM] | EC50, CellTiter-Glo (CAL-85-1 [5]) [nM] | EC50, CellTiter-Glo (DU-4475 [7]) [nM] | EC50, CellTiter-Glo (CAL-120 [8]) [nM] | EC50, CellTiter-Glo (MCF-10A [10]) [nM] | EC50, CellTiter-Glo (HDQ-P1 [11]) [nM] | EC50, CellTox Green (CAL-85-1 [12]) [nM] | EC50, CellTox Green (MDA-MB-231 [13]) [nM] | EC50, CellTox Green (DU-4475 [14]) [nM] | EC50, CellTox Green (CAL-120 [15]) [nM] | EC50, CellTox Green (MCF-10A [16]) [nM] | EC50, CellTiter-Glo (CAL-51 [17]) [nM] | EC50, CellTiter-Glo (CAL-148 [21]) [nM] | EC50, CellTox Green (CAL-51 [23]) [nM] | EC50, CellTox Green (HCC1599 [24]) [nM] | EC50, CellTox Green (BT-549 [25]) [nM] | EC50, CellTox Green (MDA-MB-453 [26]) [nM] | EC50, CellTox Green (BT-474 [27]) [nM] | EC50, CellTox Green (HCC1937 [28]) [nM] | EC50, CellTox Green (MFM-223 [29]) [nM] | EC50, CellTox Green (CAL-148 [30]) [nM] | EC50, CellTox Green (MDA-MB-436 [31]) [nM] | EC50, CellTox Green (MDA-MB-468 [32]) [nM] | EC50, CellTox Green (HDQ-P1 [33]) [nM] | EC50, CellTiter-Blue viability (CAL-85-1 [34]) [nM] | EC50, CellTiter-Blue viability (DU-4475 [35]) [nM] | EC50, CellTiter-Blue viability (HDQ-P1 [36]) [nM] | EC50, CellTiter-Blue viability (Hs578T [38]) [nM]
14.7 | 172 | 6.45 | 67 |  |  |  |  |  |  |  | CC(=O)Nc1cccc(-n2c(=O)n(C3CC3)c(=O)c3c(Nc4ccc(I)cc4F)n(C)c(=O)c(C)c32)c1 [Trametinib] | 137 | 53.2 | 21.1 | 1.37 | 16.2 | 0.71 | 1.7 | 71.5 | 0.4 | 2.32 | 45.4 | 79.2 |  |  |  |  |  |  |  |  |  |  |  |  |  |  |  |  | 
2660 | 3460 | 2540 | 2510 | 2790 | 2530 | 2400 | 1950 | 2380 | 2270 |  | COc1cc2c(NC3CCN(C(C)C)CC3)nc(C3CCCCC3)nc2cc1OCCCN1CCCC1 [UNC0638] |  | 2270 | 3520 | 1650 | 2720 | 1880 | 5250 | 2440 | 1650 |  | 2440 | 2230 | 1660 | 2510 | 1650 | 1440 | 2100 | 2520 | 2200 | 2140 | 2920 | 2730 | 4240 | 2380 | 4720 |  |  |  | 
 |  |  |  |  |  |  |  |  |  | 7820 | CCCS(=O)(=O)Nc1ccc(F)c(C(=O)c2c[nH]c3ncc(-c4ccc(Cl)cc4)cc23)c1F [Vemurafenib] |  |  |  | 551 |  |  |  |  | > 10000 | 421 |  |  | 1680 |  | 21.9 |  |  |  |  |  |  |  |  |  |  | > 10000 | 295 | 3680 | 9430

From the supplement of paper PMC4862054
